Experimental data from patent US9890149B2 (NuBridge BioSciences, priority 2015, dated 2018).

Molecular target: T1, ΔF508 mutant CFTR (Homo sapiens, UniProt P13569, DEL508-508)
T1 construct: expressed in transfected cells; host or cells: Fischer rat thyroid (FRT) cells
Assay: Fluorescence Assay (halide-sensitive YFP, iodide influx) for ΔF508 mutant CFTR activity
Format: cell-based
Conditions: FRT cells expressing ΔF508-CFTR and YFP-H148Q/I152L, incubated 27° C. 20-24 h; forskolin (20 μM) and test compounds (20 μM) for 20 min; rate of fluorescence quenching by I−, normalized to forskolin alone
Description: The ΔF508 mutant CFTR activities of the CFTR modulators are detected using the Fluorescence Assay developed by Pedemonte (Pedemonte N., et al., Antihypertensive 1,4-dihydropyridines as correctors of the cystic fibrosis transmembrane conductance regulator channel gating defect caused by cystic fibrosis mutations, Mol. Pharmacol., 2005, 68, 1736-1746).
Fischer rat thyroid (FRT) cells, stably transfected with ΔF508 were retransfected with the YFP-H148Q/I152L fluorescent protein. The cells were plated (100,000 cells/well) on black 96-well microplates with clear plastic bottom (Corning Life Sciences, Acton, Mass.).
The 96-well microplates containing FRT cells expressing F508-CFTR and the halide-sensitive YFP were incubated at 27° C. for 20 to 24 h to allow rescue of the mutant protein to the plasma membrane. After incubation, cells were washed with PBS (containing 137 mM NaCl, 2.7 mM KCl, 8.1 mM Na2HPO4, 1.5 mM KH2PO4, 1 mM CaCl2, and 0.5 mM MgCl2) and stimulated for 20 min with forskolin (20 μM) and test compounds (20 μM) in a final volume of […] Microplates were then transferred to a microplate reader for CFTR activity determination.

T1 sequence (P13569 with tags, fused parts or gaps DEL508-508): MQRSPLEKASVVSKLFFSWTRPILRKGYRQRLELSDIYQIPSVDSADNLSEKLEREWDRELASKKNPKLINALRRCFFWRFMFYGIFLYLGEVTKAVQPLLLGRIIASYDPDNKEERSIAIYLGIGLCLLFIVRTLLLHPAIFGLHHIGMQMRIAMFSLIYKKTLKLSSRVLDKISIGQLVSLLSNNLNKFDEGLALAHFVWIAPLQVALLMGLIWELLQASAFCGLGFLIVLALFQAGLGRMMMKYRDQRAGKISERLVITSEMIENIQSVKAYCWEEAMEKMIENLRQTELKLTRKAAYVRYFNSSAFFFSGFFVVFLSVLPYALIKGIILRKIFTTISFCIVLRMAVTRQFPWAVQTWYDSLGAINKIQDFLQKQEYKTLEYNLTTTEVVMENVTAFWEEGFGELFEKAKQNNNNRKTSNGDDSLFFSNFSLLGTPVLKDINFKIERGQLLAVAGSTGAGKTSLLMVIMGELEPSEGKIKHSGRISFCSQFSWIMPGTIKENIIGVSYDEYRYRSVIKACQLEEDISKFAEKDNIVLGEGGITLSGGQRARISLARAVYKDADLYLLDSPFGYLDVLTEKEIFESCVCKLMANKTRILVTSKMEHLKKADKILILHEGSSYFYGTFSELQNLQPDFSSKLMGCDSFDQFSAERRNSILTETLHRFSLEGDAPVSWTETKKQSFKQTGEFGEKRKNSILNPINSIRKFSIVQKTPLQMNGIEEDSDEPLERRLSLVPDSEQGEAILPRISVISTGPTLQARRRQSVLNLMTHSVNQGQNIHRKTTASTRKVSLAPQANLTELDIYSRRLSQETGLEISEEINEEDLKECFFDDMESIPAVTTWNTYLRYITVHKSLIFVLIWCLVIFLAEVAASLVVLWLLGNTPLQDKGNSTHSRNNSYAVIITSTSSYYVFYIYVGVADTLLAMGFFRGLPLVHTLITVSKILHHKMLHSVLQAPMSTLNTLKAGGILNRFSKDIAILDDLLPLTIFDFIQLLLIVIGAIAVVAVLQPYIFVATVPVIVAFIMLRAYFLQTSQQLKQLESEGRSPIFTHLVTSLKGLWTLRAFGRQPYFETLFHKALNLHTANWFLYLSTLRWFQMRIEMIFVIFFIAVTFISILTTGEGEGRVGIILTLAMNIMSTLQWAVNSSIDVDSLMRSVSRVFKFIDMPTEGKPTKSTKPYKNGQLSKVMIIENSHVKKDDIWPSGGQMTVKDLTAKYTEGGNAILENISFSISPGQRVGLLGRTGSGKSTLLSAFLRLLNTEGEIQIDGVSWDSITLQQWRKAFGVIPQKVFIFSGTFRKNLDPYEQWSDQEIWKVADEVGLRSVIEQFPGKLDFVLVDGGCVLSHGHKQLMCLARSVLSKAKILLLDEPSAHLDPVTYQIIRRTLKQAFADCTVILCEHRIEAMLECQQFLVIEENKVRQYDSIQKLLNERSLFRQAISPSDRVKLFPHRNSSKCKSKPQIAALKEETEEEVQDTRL

SMILES | CFTR Activity
Cl.O=C(Nc1cnsc1OCC1CCNCC1)c1ccc(F)c(-c2c(F)cccc2F)n1 [Example 1, 6-(2,6-difluorophenyl)-5-fluoro-N-(5-(piperidin-4-ylmethoxy)isothiazol-4-yl)picolinamide hydrochloride] | 0.9
Cl.O=C(Nc1cnsc1OCC1CNC1)c1ccc(F)c(-c2c(F)cccc2F)n1 [Example 2, N-(5-(azetidin-3-ylmethoxy)isothiazol-4-yl)-6-(2,6-difluorophenyl)-5-fluoropicolinamide hydrochloride] | 0.2
Cl.O=C(Nc1cnsc1OC1CCNCC1)c1ccc(F)c(-c2c(F)cccc2F)n1 [Example 3, 6-(2,6-difluorophenyl)-5-fluoro-N-(5-(piperidin-4-yloxy)isothiazol-4-yl)picolinamide hydrochloride] | 1.3
Cl.O=C(Nc1cnsc1OC1CCNC1)c1ccc(F)c(-c2c(F)cccc2F)n1 (centres unmarked) [Example 4, 6-(2,6-difluorophenyl)-5-fluoro-N-(5-(pyrrolidin-3-yloxy)isothiazol-4-yl)picolinamide hydrochloride] | 0.8
Cl.O=C(Nc1cnsc1OC1CCCNC1)c1ccc(F)c(-c2c(F)cccc2F)n1 (centres unmarked) [Example 5, 6-(2,6-difluorophenyl)-5-fluoro-N-(5-(piperidin-3-yloxy)isothiazol-4-yl)picolinamide hydrochloride] | 0.5
Cl.O=C(Nc1cnsc1OC1CCCNCC1)c1ccc(F)c(-c2c(F)cccc2F)n1 (centres unmarked) [Example 6, N-(5-(azepan-4-yloxy)isothiazol-4-yl)-6-(2,6-difluorophenyl)-5-fluoropicolinamide hydrochloride] | 1.4
Cl.O=C(Nc1cnsc1OCC1CCCNC1)c1ccc(F)c(-c2c(F)cccc2F)n1 (centres unmarked) [Example 7, 6-(2,6-difluorophenyl)-5-fluoro-N-(5-(piperidin-3-ylmethoxy)isothiazol-4-yl)picolinamide hydrochloride] | 0.9
Cl.O=C(Nc1cnsc1OCC1CCNC1)c1ccc(F)c(-c2c(F)cccc2F)n1 (centres unmarked) [Example 8, 6-(2,6-difluorophenyl)-5-fluoro-N-(5-(pyrrolidin-3-ylmethoxy)isothiazol-4-yl)picolinamide hydrochloride] | 0.7
Cl.NCCCCOc1sncc1NC(=O)c1ccc(F)c(-c2c(F)cccc2F)n1 [Example 15, N-(5-(4-aminobutoxy)isothiazol-4-yl)-6-(2,6-difluorophenyl)-5-fluoropicolinamide hydrochloride] | 0.7
CNCCCCOc1sncc1NC(=O)c1ccc(F)c(-c2c(F)cccc2F)n1.Cl [Example 16, 6-(2,6-difluorophenyl)-5-fluoro-N-(5-(4-(methylamino)butoxy)isothiazol-4-yl)picolinamide hydrochloride] | 0.5
CC(O)CCOc1sncc1NC(=O)c1ccc(F)c(-c2c(F)cccc2F)n1 (centres unmarked) [Example 18, 6-(2,6-difluorophenyl)-5-fluoro-N-(5-(3-hydroxybutoxy)isothiazol-4-yl)picolinamide] | 0.12
O=C(Nc1cnsc1OCCCCO)c1ccc(F)c(-c2c(F)cccc2F)n1 [Example 19, 6-(2,6-difluorophenyl)-5-fluoro-N-(5-(4-hydroxybutoxy)isothiazol-4-yl)picolinamide] | 0.1
O=C(Nc1cnsc1OCCC(O)CO)c1ccc(F)c(-c2c(F)cccc2F)n1 (centres unmarked) [Example 21, 6-(2,6-difluorophenyl)-N-(5-(3,4-dihydroxybutoxy)isothiazol-4-yl)-5-fluoropicolinamide] | 0.5

Other lines, results leading:

CFTR Activity | SMILES
0.1 | Cl.O=C(Nc1cnsc1OC1CNC1)c1ccc(F)c(-c2c(F)cccc2F)n1 [Example 9, N-(5-(azetidin-3-yloxy)isothiazol-4-yl)-6-(2,6-difluorophenyl)-5-fluoropicolinamide hydrochloride]
1 | Cl.N[C@H]1CC[C@H](Oc2sncc2NC(=O)c2ccc(F)c(-c3c(F)cccc3F)n2)CC1 [Example 10, N-(5-(((1r,4r)-4-aminocyclohexyl)oxy)isothiazol-4-yl)-6-(2,6-difluorophenyl)-5-fluoropicolinamide hydrochloride]
1.1 | Cl.NC1CCCC(Oc2sncc2NC(=O)c2ccc(F)c(-c3c(F)cccc3F)n2)C1 (centres unmarked) [Example 11, N-(5-((3-aminocyclohexyl)oxy)isothiazol-4-yl)-6-(2,6-difluorophenyl)-5-fluoropicolinamide hydrochloride]
0.7 | Cl.NCCCOc1sncc1NC(=O)c1ccc(F)c(-c2c(F)cccc2F)n1 [Example 12, N-(5-(3-aminopropoxy)isothiazol-4-yl)-6-(2,6-difluorophenyl)-5-fluoropicolinamide hydrochloride]
0.5 | CNCCCOc1sncc1NC(=O)c1ccc(F)c(-c2c(F)cccc2F)n1.Cl [Example 13, 6-(2,6-difluorophenyl)-5-fluoro-N-(5-(3-(methylamino)propoxy)isothiazol-4-yl)picolinamide hydrochloride]
0.3 | CN(C)CCCOc1sncc1NC(=O)c1ccc(F)c(-c2c(F)cccc2F)n1.Cl [Example 14, 6-(2,6-difluorophenyl)-N-(5-(3-(dimethylamino)propoxy)isothiazol-4-yl)-5-fluoropicolinamide hydrochloride]
0.1 | O=C(Nc1cnsc1OCCCO)c1ccc(F)c(-c2c(F)cccc2F)n1 [Example 17, 6-(2,6-difluorophenyl)-5-fluoro-N-(5-(3-hydroxypropoxy)isothiazol-4-yl)picolinamide]
0.1 | CC(C)(O)CCCOc1sncc1NC(=O)c1ccc(F)c(-c2c(F)cccc2F)n1 [Example 20, 6-(2,6-difluorophenyl)-5-fluoro-N-(5-((4-hydroxy-4-methylpentyl)oxy)isothiazol-4-yl)picolinamide]
0.3 | O=C(Nc1cnsc1OCC1CCOCC1)c1ccc(F)c(-c2c(F)cccc2F)n1 [Example 22, 6-(2,6-difluorophenyl)-5-fluoro-N-(5-((tetrahydro-2H-pyran-4-yl)methoxy)isothiazol-4-yl)picolinamide]
2.2 | Cl.Nc1cc(F)c(-c2c(F)cccc2F)nc1C(=O)Nc1cnsc1OCC1CCNCC1 [Example 23, 3-amino-6-(2,6-difluorophenyl)-5-fluoro-N-(5-(piperidin-4-ylmethoxy)isothiazol-4-yl)picolinamide hydrochloride]
1.9 | Cl.Nc1cc(F)c(-c2c(F)cccc2F)nc1C(=O)Nc1cnsc1OC1CCNC1 (centres unmarked) [Example 24, 3-amino-6-(2,6-difluorophenyl)-5-fluoro-N-(5-(pyrrolidin-3-yloxy)isothiazol-4-yl)picolinamide hydrochloride]
2.5 | Cl.Nc1cc(F)c(-c2c(F)cccc2F)nc1C(=O)Nc1cnsc1OC1CCNCC1 [Example 25, 3-amino-6-(2,6-difluorophenyl)-5-fluoro-N-(5-(piperidin-4-yloxy)isothiazol-4-yl)picolinamide hydrochloride]
3.1 | Cl.Nc1cc(F)c(-c2c(F)cccc2F)nc1C(=O)Nc1cnsc1OC1CCCNCC1 (centres unmarked) [Example 26, 3-amino-N-(5-(azepan-4-yloxy)isothiazol-4-yl)-6-(2,6-difluorophenyl)-5-fluoropicolinamide hydrochloride]
